From PMC2744016, “Adenosine Triphosphate Stimulates Aquifex aeolicus MutL Endonuclease Activity” (PLoS ONE, 2009)

Tests used:
Aae MutL [1] = biological target: T1, Aae MutL (Aquifex aeolicus, UniProt O67518); test: filter-binding assay with 3H nucleotide; conditions: labelled compound; no DNA, ssDNA or dsDNA M13mp18; 10 mM MgCl2, 50 mM NaCl, pH 7.9, room temperature
T1 construct: full-length (C-terminal domain residues 303-425), expressed in E. coli Rosetta (DE3) from pTWIN1 as Mxe GyrA intein fusion, intein tag cleaved off
T1 sequence (O67518 1-425): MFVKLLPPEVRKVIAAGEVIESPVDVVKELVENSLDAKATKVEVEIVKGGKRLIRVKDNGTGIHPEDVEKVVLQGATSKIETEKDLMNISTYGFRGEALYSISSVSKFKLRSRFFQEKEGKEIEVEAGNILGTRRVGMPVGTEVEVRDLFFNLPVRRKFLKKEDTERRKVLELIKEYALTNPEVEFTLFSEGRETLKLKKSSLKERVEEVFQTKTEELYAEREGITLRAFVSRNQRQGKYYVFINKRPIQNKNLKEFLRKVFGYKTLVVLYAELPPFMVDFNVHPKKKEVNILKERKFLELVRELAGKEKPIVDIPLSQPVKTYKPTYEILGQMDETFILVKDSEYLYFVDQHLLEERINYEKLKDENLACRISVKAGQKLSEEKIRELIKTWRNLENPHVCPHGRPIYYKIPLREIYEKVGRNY

Aae MutL [2] = biological target: T1, Aae MutL; test: initial rate of supercoiled pBR322 nicking, agarose gel; assay type: biochemical; conditions: 1 mM AMPPNP, 1 mM MnSO4, pH 7.6, 37 °C; activator

Nc1ncnc2c1ncn2[C@@H]1O[C@H](COP(=O)(O)OP(=O)(O)O)[C@@H](O)[C@H]1O [ADP]
filter-binding assay with 3H nucleotide (Aae MutL [1]): in the presence of ssDNA MutL binds both ATP and ADP with about equal affinity

Nc1ncnc2c1ncn2[C@@H]1O[C@H](COP(=O)(O)OP(=O)(O)OP(=O)(O)O)[C@@H](O)[C@H]1O [ATP]
filter-binding assay with 3H nucleotide (Aae MutL [1]): in the presence of ssDNA MutL binds both ATP and ADP with about equal affinity

Nc1ncnc2c1ncn2[C@@H]1O[C@H](COP(=O)(O)OP(=O)(O)NP(=O)(O)O)[C@@H](O)[C@H]1O [AMPPNP]
initial rate of supercoiled pBR322 nicking, agarose gel (Aae MutL [2]): AMPPNP stimulated Aae MutL nicking activity to the same extent as observed with ATP
